Where two headings read alike, the source gives them in different places.
What was measured:
[1] = SEM image, N=200 crystals
Experimental: The shape of crystals is determined by an analysis of an image, taken by the scanning electron microscope (SEM), JEOL JXA840A at magnification 500-2000×. The length/width ratio of the crystal habit is determined by measuring length and width of a representative sample (N=200) of crystals on the image, using the image analyzing software Olympus DP-Soft, v-3.2. The length/width ratio is calculated independently for each crystal. Finally, the number average of the ratio is determined and optionally histogram calculated.

[2] = 15% relative humidity and 23° C.
Experimental: A method of measuring electrostatic nature is a tribogeneration where relative charge on the powdered sample is measured with an electrometer equipped with a Faraday cup (NanoCoulumb Meter, Model 284, Monroe Electronics, USA). Prior to measurement, the charge is generated by strongly vibrating the sample (approximately 3 g) on a dry Petri dish (D=24 cm) for 2 minutes. The charged sample is then transferred to a Faraday cup of the electrometer with a plastic spoon and its charge is measured by an electrometer. After the charge measurement the sample is weighted and the relative charge calculated. All measurements are performed at controlled dry atmosphere conditions (15% relative humidity and 23° C.).

Row | Structure (SMILES) | a (length of crystals) [1] [μm] | a:b (length/width ratio, number average) [1] | b (width of crystals) [1] [μm] | chargeab. (chargeability by tribogeneration) [2] | chargeab. (chargeability by tribogeneration) ([2]; listed as 3913D) | chargeab. (chargeability by tribogeneration) ([2]; listed as 1649)
1 | CCCCC1=NC2(CCCC2)C(=O)N1Cc1ccc(-c2ccccc2-c2nnn[nH]2)cc1 [Example 1, 2-n-butyl-4-spirocyclopentane-1-[((2′-tetrazol-5-yl)biphenyl-4-yl)methyl]-2-imidazolin-5-one] | 14.9 ± 10.1 | 13 ± 10 | 1.2 ± 1.4 | −33.7 ± 15 10^−9 As/g |  | 
2 | CCCCC1=NC2(CCCC2)C(=O)N1Cc1ccc(-c2ccccc2-c2nnn[nH]2)cc1 [Example 2, 2-n-butyl-4-spirocyclopentane-1-[((2′-tetrazol-5-yl)biphenyl-4-yl)methyl]-2-imidazolin-5-one] | 78 ± 68 | 13.4 ± 1.9 | 6.7 ± 2.8 | −32 ± 4.6 10^−9 As/g |  | 
3 | CCCCC1=NC2(CCCC2)C(=O)N1Cc1ccc(-c2ccccc2-c2nnn[nH]2)cc1 [Example 3, 2-n-butyl-4-spirocyclopentane-1-[((2′-tetrazol-5-yl)biphenyl-4-yl)methyl]-2-imidazolin-5-one] | 20.7 ± 17.4 | 23.3 ± 23 | 1.0 ± 0.5 | −45.8 ± 4.9 10^−9 As/g | 45.8±4.9 10^−9 As/g | 
4 | CCCCC1=NC2(CCCC2)C(=O)N1Cc1ccc(-c2ccccc2-c2nnn[nH]2)cc1 [Example 4, 2-n-butyl-4-spirocyclopentane-1-[((2′-tetrazol-5-yl)biphenyl-4-yl)methyl]-2-imidazolin-5-one] | 130 ± 96 | 17 ± 12.9 | 7.9 ± 3.4 | −27.5 ± 5.6 10^−9 As/g |  | 
5 | CCCCC1=NC2(CCCC2)C(=O)N1Cc1ccc(-c2ccccc2-c2nnn[nH]2)cc1 [Example 5, 2-n-butyl-4-spirocyclopentane-1-[((2′-tetrazol-5-yl)biphenyl-4-yl)methyl]-2-imidazolin-5-one] | 58 ± 50 | 9.5 ± 8 | 6.4 ± 1.2 | −17.1 ± 2.9 10^−9 As/g |  | 
6 | CCCCC1=NC2(CCCC2)C(=O)N1Cc1ccc(-c2ccccc2-c2nnn[nH]2)cc1 [Example 6, 2-n-butyl-4-spirocyclopentane-1-[((2′-tetrazol-5-yl)biphenyl-4-yl)methyl]-2-imidazolin-5-one] | 32 ± 32 | 22 ± 18 | 1.4 ± 0.6 | −27.9 ± 2.8 10^−9 As/g |  | 
7 | CCCCC1=NC2(CCCC2)C(=O)N1Cc1ccc(-c2ccccc2-c2nnn[nH]2)cc1 [Example 7, 2-n-butyl-4-spirocyclopentane-1-[((2′-tetrazol-5-yl)biphenyl-4-yl)methyl]-2-imidazolin-5-one] | 21 ± 17 | 13 ± 9 | 2.6 ± 1.0 | −26.5 ± 6 10^−9 As/g |  | −26.5±6 10^−9 As/g

From US20090208573A1, “NOVEL POLYMORPH FORM OF IRBESARTAN” (LEK PHARMACEUTICALS D.D, priority 2004, published 2009)
